Measured values taken from US20250092030A1, “ENHANCERS OF PARTICULATE GUANYLYL CYCLASE RECEPTOR A” (Mayo Foundation for Medical Education and Research, priority 2023, published 2025).
Several values for one entry are separate records, joined by “and”; a condition that tells them apart may be missing. Equal values may be shown once.

Biological target: T1, particulate guanylyl cyclase receptor A (pGC-A) (Homo sapiens, UniProt P16066)
T1 construct: expressed in transfected cells; host or cells: HEK293
T1 sequence (P16066 33-1061): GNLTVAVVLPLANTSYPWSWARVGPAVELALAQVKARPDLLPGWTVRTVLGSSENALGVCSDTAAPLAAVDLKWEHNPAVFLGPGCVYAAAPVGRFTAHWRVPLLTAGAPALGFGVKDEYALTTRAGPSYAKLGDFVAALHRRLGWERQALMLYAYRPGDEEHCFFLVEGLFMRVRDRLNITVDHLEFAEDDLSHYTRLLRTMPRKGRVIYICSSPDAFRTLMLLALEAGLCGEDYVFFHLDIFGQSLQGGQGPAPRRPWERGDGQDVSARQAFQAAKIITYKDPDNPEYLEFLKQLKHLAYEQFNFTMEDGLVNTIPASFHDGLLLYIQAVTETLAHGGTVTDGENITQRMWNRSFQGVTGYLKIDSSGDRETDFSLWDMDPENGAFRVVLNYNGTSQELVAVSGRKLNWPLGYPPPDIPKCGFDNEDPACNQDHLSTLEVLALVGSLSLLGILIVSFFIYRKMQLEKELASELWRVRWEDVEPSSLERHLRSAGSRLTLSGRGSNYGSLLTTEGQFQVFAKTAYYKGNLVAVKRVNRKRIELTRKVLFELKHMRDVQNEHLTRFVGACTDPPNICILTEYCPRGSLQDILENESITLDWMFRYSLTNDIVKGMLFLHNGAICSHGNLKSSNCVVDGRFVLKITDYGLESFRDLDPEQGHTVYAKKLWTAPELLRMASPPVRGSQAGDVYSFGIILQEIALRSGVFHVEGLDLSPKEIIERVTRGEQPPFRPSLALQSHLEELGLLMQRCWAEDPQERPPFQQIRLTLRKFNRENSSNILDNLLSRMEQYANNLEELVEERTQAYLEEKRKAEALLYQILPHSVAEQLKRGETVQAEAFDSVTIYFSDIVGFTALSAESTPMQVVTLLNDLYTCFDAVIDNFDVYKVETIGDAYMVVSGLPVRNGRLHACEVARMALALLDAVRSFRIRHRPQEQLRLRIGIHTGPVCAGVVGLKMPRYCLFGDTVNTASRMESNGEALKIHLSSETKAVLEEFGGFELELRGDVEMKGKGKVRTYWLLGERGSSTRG
T1 sequence (P01160 124-151 partner limits assumed): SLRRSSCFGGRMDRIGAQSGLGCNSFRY
Test: cGMP production by HTRF in HEK293 cells overexpressing pGC-A, with ANP
Type: cell-based
Conditions: for Emax: HEK293, HEK293 cells overexpressing pGC-A, read-out: Max efficacy; for EC50: test compound plus EC20 concentration of ANP, cGMP by HTRF
Summary of the method: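 Suspension cells stimulated 30 min at room temperature with test compound (10 μM stock in DMSO) plus ANP near EC20 in HBSS/5 mM HEPES/0.05% BSA. cGMP quantified by competitive HTRF immunoassay (Eu3+ cryptate anti-cGMP, d2-cGMP), normalized to cGMP from EC80 ANP; EC50 derived with or without ANP.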

[1] = cGMP normalized to maximal amount produced by an EC80 concentration of ANP
[2] = HEK293 cells overexpressing pGC-A

Row | SMILES | Emax [1] [%] | EC50 [2] | Max efficacy (HEK293 cells overexpressing pGC-A, cGMP normalized to maximal amount produced by an EC80 concentration of ANP) [%]
1 | CN(C)CCN1CC(O)CC(C(=O)Nc2nc3c(F)cc(F)cc3s2)C1 (stereo not shown) [compound 262] | 86 | 400 nM | –
2 | COC1CNCC(C(=O)Nc2nc3c(F)cc(F)cc3s2)C1 (stereo not shown) [compound 265] | 75 | 1700 nM | –
3 | O=C(O)C1CNCC(C(=O)Nc2nc3c(F)cc(F)cc3s2)C1 (stereo not shown) [compound 271] | – | > 5000 nM | –
4 | CC(C)NC(=O)N1CCCC(C(=O)Nc2nc3c(F)cc(F)cc3s2)C1 (stereo not shown) [compound 278] | 70 | 2600 nM | –
5 | O=C(Nc1nc2c(F)cc(F)cc2s1)C1CCCN(C(=O)Nc2ccccc2)C1 (stereo not shown) [compound 280] | – | > 5000 nM | –
6 | CNC(=O)N1CCCC(C(=O)Nc2nc3c(F)cc(F)cc3s2)C1 (stereo not shown) [compound 281] | 53 | 1300 nM | –

More lines, now with the values ahead:

Row | Emax [1] [%] | EC50 [2] | Max efficacy (HEK293 cells overexpressing pGC-A, cGMP normalized to maximal amount produced by an EC80 concentration of ANP) [%] | SMILES
7 | 45 | 1300 nM | – | O=C(Nc1nc2c(F)cc(F)cc2s1)C1CNCC(O)C1 (stereo not shown) [compound 263]
8 | 62 | 3600 nM and 1200 nM | 72 | CCN(C)C(=O)N1CCCC(C(=O)Nc2nc3c(F)cc(F)cc3s2)C1 (stereo not shown) [compound 274]
9 | – | > 5000 nM | – | O=C(Nc1nc2c(F)cc(F)cc2s1)C1CCCN(C(=O)N2CCCC2)C1 (stereo not shown) [compound 275]
10 | 49 | 1600 nM and > 5000 nM | – | CCN(CC)C(=O)N1CCCC(C(=O)Nc2nc3c(F)cc(F)cc3s2)C1 (stereo not shown) [compound 276]
11 | – | > 5000 nM | – | CCNC(=O)N1CCCC(C(=O)Nc2nc3c(F)cc(F)cc3s2)C1 (stereo not shown) [compound 277]
12 | – | > 5000 nM | – | O=C(Nc1nc2c(F)cc(F)cc2s1)C1CCCN(C(=O)NCc2ccccc2)C1 (stereo not shown) [compound 279]
13 | 61 | 180 nM | – | CN(C)C(=O)N1CCCC(C(=O)Nc2nc3c(Cl)cc(F)cc3s2)C1 (stereo not shown) [compound 282]
